Measurements published in US20110230504A1, “ALLEVIATING DISORDERS WITH COMBINING AGENTS THAT INCREASE EPOXYGENATED FATTY ACIDS AND AGENTS THAT INCREASE cAMP” (The Regents Of The University Of California Office Of …, priority 2008, published 2011).
Each block holds one compound with its values, some of them ahead of it.

What was measured:
[1] = target: peripheral benzodiazepine receptor (PBR, TSPO) (Rattus norvegicus, UniProt P16257); assay: Displacement of [3H] PK11195 from TSPO (rat heart mitochondria, CEREP); settings: methyl ester forms
[2] = Brain, blood and plasma inhibitor levels, LC-ESI-MS/MS; settings: AEPU dermal, TPAU systemic administration
StARD1 mRNA [3] = assay: StARD1 expression after rolipram and TPAU, qRT-PCR; type: in vivo, rat; settings: rats
From the text: Briefly, RNA from whole spinal cord, brain and adrenal gland samples were extracted using a purelink Micro to Midi total RNA purification kit (Invitrogen, CA). The RNA samples were quantified by spectrophotometry and converted to cDNA using a high capacity cDNA reverse transcription kit from Applied Biosystems (CA, USA). Taq-man probe for StARD1 (Rn00580695_ml) was used according to manufacturer's instructions to quantify relative gene expression (Applied Biosystems CA, USA). Experiments were performed in triplicate with glyceraldehyde 3-phosphate dehydrogenase gene serving as the endogenous control. Mean fold expression values from corresponding vehicle treated animal tissues were used as calibrators.
These findings encouraged us to investigate the expression of StARD1 message as a marker of steroidogenic activity. […] Adrenal StARD1 from the same animals was also monitored as a marker of peripheral steroidogenesis.

mouse sEH = target: T1, mouse sEH (Mus musculus, UniProt P34914); assay: biochemical
T1 sequence (P34914 1-554): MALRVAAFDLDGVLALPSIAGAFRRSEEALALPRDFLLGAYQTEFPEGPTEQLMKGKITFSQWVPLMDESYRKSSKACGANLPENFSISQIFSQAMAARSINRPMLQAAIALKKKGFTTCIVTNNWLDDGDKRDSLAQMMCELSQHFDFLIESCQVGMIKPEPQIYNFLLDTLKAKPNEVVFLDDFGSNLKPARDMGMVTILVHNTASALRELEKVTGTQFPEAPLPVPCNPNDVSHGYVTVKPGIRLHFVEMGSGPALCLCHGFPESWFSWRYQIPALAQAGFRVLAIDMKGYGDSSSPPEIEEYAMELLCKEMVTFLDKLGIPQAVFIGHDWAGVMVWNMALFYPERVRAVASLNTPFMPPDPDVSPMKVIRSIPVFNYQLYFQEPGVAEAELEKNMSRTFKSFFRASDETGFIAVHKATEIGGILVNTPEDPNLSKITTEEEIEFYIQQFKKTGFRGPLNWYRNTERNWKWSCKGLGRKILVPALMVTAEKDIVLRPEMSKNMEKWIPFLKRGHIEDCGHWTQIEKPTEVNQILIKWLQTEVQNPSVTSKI

rats [4] = assay: Thermal withdrawal latency, intraplantar LPS inflammatory pain model and non-inflamed controls; type: in vivo, rat; settings: for thermal withdrawal latency in the absence of inflammation: control rats, i.pl. saline
rats [5] = assay: Open field / motor activity; type: in vivo, rat; settings: rolipram 0.1 and TPAU 10 mg/kg
[6] = Metabolic stability and pharmacokinetics of sEH inhibitors (statements)
[7] = system: plasma oxylipins (EETs, DHETs, PGE2); assay: Plasma oxylipin analysis in LPS treated rats; type: in vivo, rat; settings: LPS treated rats, two hours
From the text: Plasma was collected by cardiac puncture under deep anesthesia. Rats were anesthetized by isoflurane overdose and decapitated. Whole brains were immediately excised and flash frozen. […] Dorsal roots were excluded.

StARD1 mRNA [8] = assay: StARD1 mRNA in LPS inflamed rats, qRT-PCR; type: in vivo, rat
From the text: (§1) A purelink Micro to Midi total RNA purification kit (Invitrogen, CA) was used to extract RNA from whole spinal cord, adrenal gland and testis. For brain, the remaining caudal two thirds were sliced into two hemispheres from the midline and a coronal slice of 2 mm in thickness was taken for analysis. The RNA samples were quantified by spectrophotometry and converted to cDNA using a high capacity cDNA reverse transcription kit from Applied Biosystems (CA, USA). Taq-man probes for COX2 (Rn00568225_ml) StARD1 (Rn00580695_ml), ICER(Rn00569145_ml), Sst (Rn00561967_ml), sEH(Rn00576023_ml) genes were used according to manufacturer's instructions to quantify relative gene expression (Applied Biosystems). Experiments were performed in triplicate with GAPDH (glyceraldehyde 3-phosphate dehydrogenase message) serving as the endogenous control. Mean fold expression values from corresponding untreated animal tissues were used as calibrators.

COX2 mRNA = assay: Spinal COX2 mRNA after intraplantar LPS, qRT-PCR; type: in vivo, rat; settings: rats
From the text: as §1

StARD1 mRNA [9] = assay: StARD1 mRNA 30 min after intraspinal 8-Br cAMP, EETs, AEPU in non-inflamed rats; type: in vivo, rat; settings: 8-Br cAMP 100 μg, EETs 5 μg, AEPU 1 μg
Experimental: To investigate the cooperation between cAMP and EETs in the spinal cord, a membrane permeable cAMP analogue, 8-Br cAMP (100 μg), was administered into the spinal cord by lumbar puncture (between L4-L5) and rapid (30 min.) expression of StARD1 mRNA in the spinal cord and the brain was quantified by qRT-PCR. In these experiments animals were maintained under deep anesthesia.

rats [10] = assay: Intraplantar carrageenan inflammatory pain model, intrathecal sEHI; type: in vivo, rat; settings: intrathecal 0.1-3 μg
Experimental: The study was approved by UC Davis Animal Care and Use Committee. Male Sprague-Dawley rats weighing 250-350 g were obtained from Charles River Inc. Two models of inflammatory pain and one model of diabetic neuropathic pain were used to test the effects of sEHI. The main inflammatory pain model used involved intraplantar LPS (10 μg/animal) administration as described previously (Inceoglu B et al., Life Sci 79:2311-2319 (2006)). Briefly, following baseline thermal withdrawal latency and mechanical withdrawal threshold determination LPS (in saline) was administered into one hind paw and nociceptive thresholds were monitored over time. The other inflammatory pain model involved intraplantar carrageenan (1% in saline, 50 μl) administration and was only used when sEHI was administered into the spinal cord. Intrathecal catheters were implanted according to Yaksh and Rudy (Yaksh T L and Rudy T A, Physiol Behav 17(6):1031-1036 (1976)). Following baseline nociceptive response measurements carrageenan was administered into one hind paw and responses were monitored over time and after intraspinal sEHI administration. […] In experiments in which EETs, sEHI and cAMP analogue was administered intraspinally animals were maintained under deep anesthesia and therefore nociceptive thresholds were not determined.

[11] = system: circulating testosterone and progesterone; assay: Circulating steroid hormone levels by RIA; type: in vivo, rat; settings: rats
sEH = target: T2, sEH (Homo sapiens, UniProt P34913); assay: Testing as sEH inhibitors (assay not specified); type: biochemical
T2 sequence (P34913 1-555): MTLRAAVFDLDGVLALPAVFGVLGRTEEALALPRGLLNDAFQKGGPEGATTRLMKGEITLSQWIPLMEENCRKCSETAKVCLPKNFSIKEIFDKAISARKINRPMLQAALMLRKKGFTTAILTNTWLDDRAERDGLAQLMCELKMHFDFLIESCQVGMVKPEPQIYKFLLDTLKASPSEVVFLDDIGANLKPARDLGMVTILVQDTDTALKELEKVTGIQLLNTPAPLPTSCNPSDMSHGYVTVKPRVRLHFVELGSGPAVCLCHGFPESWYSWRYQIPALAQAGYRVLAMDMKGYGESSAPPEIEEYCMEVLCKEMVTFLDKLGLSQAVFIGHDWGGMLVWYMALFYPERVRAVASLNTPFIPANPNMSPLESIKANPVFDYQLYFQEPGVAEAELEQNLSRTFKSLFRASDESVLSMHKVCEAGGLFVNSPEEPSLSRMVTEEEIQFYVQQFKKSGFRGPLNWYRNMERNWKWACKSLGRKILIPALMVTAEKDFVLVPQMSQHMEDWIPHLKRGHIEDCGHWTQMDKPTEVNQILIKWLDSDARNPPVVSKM
From the text: Any of a number of standard assays for determining epoxide hydrolase activity can be used to determine inhibition of sEH. For example, suitable assays are described in Gill, et al., Anal Biochem 131:273-282 (1983); and Borhan, et al., Analytical Biochemistry 231:188-200 (1995)). Suitable in vitro assays are described in Zeldin et al., J. Biol. Chem. 268:6402-6407 (1993). Suitable in vivo assays are described in Zeldin et al., Arch Biochem Biophys 330:87-96 (1996). Assays for epoxide hydrolase using both putative natural substrates and surrogate substrates have been reviewed (see, Hammock, et al. In: Methods in Enzymology, Volume III, Steroids and Isoprenoids, Part B, (Law, J. H. and H. C. Rilling, eds. 1985), Academic Press, Orlando, Fla., pp. 303-311 and Wixtrom et al., In: Biochemical Pharmacology and Toxicology, Vol. 1: Methodological Aspects of Drug Metabolizing Enzymes, (Zakim, D. and D. A. Vessey, eds. 1985), John Wiley & Sons, Inc., New York, pp. 1-93. Several spectral based assays exist based on the reactivity or tendency of the resulting diol product to hydrogen bond (see, e.g., Wixtrom, supra, and Hammock. Anal. Biochem. 174:291-299 (1985) and Dietze, et al. Anal. Biochem. 216:176-187 (1994)).

Compound: CCCCC/C=C\C/C=C\CC1OC1C/C=C\CCCC(=O)O (stereo not drawn) [8,9-EET]
competition with radioligand [3H] PK11195 at TSPO [1]: did not compete

Compound: CC(=O)N1CCC(NC(=O)Nc2ccc(OC(F)(F)F)cc2)CC1 [TPAU]
penetration into the brain [2]: efficiently penetrated into the brain | decrease in adrenal gland StARD1 expression (StARD1 mRNA [3]): 30% | IC50 (mouse sEH): 97 nM | thermal withdrawal latency in the absence of inflammation (rats [4]): no effect | loss of motor activity (rats [4]; rats): No loss of motor activity | open field activity / motor function (rats [5]): did not affect motor function | metabolic stability [6]: metabolically stable | oral availability and pharmacokinetics [6]: excellent oral availability and pharmacokinetics

penetration into the brain [2]: efficiently penetrated into the brain | metabolism [6]: metabolized rapidly
Compound: CCOCCOCCOCCCCCNC(=O)NC12CC3CC(CC(C3)C1)C2 [AEPU, Adamantan-1-yl-3-{5-[2-(2-ethoxyethoxy)ethoxy]pentyl}urea]
plasma DHET level [7]: decreased | plasma PGE2 level [7]: decreased | adrenal gland StARD1 mRNA induced by LPS (StARD1 mRNA [8]): reduced | brain StARD1 mRNA expression (StARD1 mRNA [8]): two-fold increase | spinal StARD1 mRNA expression (StARD1 mRNA [8]): sustained | testis StARD1 mRNA induced by LPS (StARD1 mRNA [8]): not in testis | spinal COX2 message after LPS (COX2 mRNA): significantly suppressed | thermal withdrawal latency in the absence of inflammation (rats [4]): no effect | LPS elicited thermal hyperalgesia (thermal withdrawal latency) (rats [4]; rats, i.pl. LPS 10 μg): briefly increased | spinal StARD1 expression (StARD1 mRNA [9]): without effect | carrageenan induced mechanical allodynia (rats [10]): dose dependent decrease | carrageenan induced thermal hyperalgesia (rats [10]): dose dependent decrease | circulating / plasma progesterone level [11]: decreased | plasma testosterone level ([11]; with or without LPS): did not alter

Compound: CCCCCCCCCCCCNC(=O)NC12CC3CC(CC(C3)C1)C2 [ADU, N-Adamantyl-N′-dodecyl urea]
activity as inhibitor of sEH (sEH): particularly high activity | metabolic stability [6]: metabolically stable
